Reference: EP4810052A2, “HCRHR2 SELECTIVE POLYPEPTIDES” (Gubra A/S, priority 2023, dated 2026)
Where two headings read alike, the source gives them in different places. Marks after values point to notes of the source that are not given here. Starred links: 1 amine or outer side, 2 acyl side, 3 side chain; linkers in the order of their positions; H or OH if unused. Non-standard residues stand in square brackets, D forms with d. Residues, ends and D or L forms follow the SMILES beside them. Groups on a side chain read outwards from the residue. *: point of attachment. C20 diacid = O=C(O)CCCCCCCCCCCCCCCCCCC(=O)*; γGlu = O=C(O)[C@H](CCC(=O)[*:2])N[*:1]; Nle = CCCC[C@H](N)C(=O)O; AEEA = NCCOCCOCC(=O)O; Aib = CC(C)(N)C(=O)O

Columns and labels:
[1] = Thioflavin T fibril formation assay of purified peptides; type: physicochemical; design: key: Amyloid fibril formation detected by an increase in ThT fluorescence was denoted with "Yes"; samples without increasing ThT fluorescence hence not forming amyloid fibrils were denoted "No"
Outline: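 Fibril formation read as rising ThT emission at 480 nm (450 nm excitation), 4 µM ThT, over 96 h at 40°C with alternating 5-min rest and 700 rpm shaking cycles, in triplicate. Samples were 200 µM compound in 50 mM phosphate at various pH values, or co-formulated at 200 µM in semaglutide product at pH 7.4.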

[2] = Body mass and body fat content in mouse model of diet-induced obesity (DIO); type: in vivo; conditions: DIO mice; for relative body weight: 28 days, compared to vehicle; for Body weight at termination / Fat mass change from baseline / Lean mass change from baseline / Relative body weight change at termination / BW at termination: ± SEM
Description: SEQ ID NO: 3, SEQ ID NO: 6, SEQ ID NO: 238, SEQ ID NO: 16 and SEQ ID NO: 215 were assessed for their ability to reduce body mass and body fat content in a mouse model of diet-induced obesity (DIO).
Male C57BL/6JRj mice were obtained from JanVier (JanVier Labs, France) at 5 weeks of age. The animals were group-housed during obesity induction and then single housed 2 weeks prior to study start. They were housed under a 12/12 h dark-light cycle, light off at 3 PM. Room temperature was controlled to 22°C ± 1°C, with 60 % ± 20% humidity. For 22-23 weeks prior to treatment start and throughout the study, the animals had ad libitum access to high-fat diet (60% kcal fat, D12492, Research Diets) and tap water.
The animals were randomized according to lean mass (EchoMRI) and body weight. Animals were dosed subcutaneously […] for 30-32 days. In study 1, the animals were dosed with vehicle or SEQ ID NO: 3 (10, 30, 60 or 100 nmol/kg). In study 2, the animals were dosed with vehicle or SEQ ID NO: 6 (10 or 30 nmol/kg), SEQ ID NO: 238 (10 or 30 nmol/kg), SEQ ID NO: 16 (10 or 30 nmol/kg), SEQ ID NO: 215 (10 or 30 nmol/kg) or SEQ ID NO: 3 (30 nmol/kg).
Body weight and food intake were recorded daily until day 28 and body composition evaluated on day 26 using EchoMRI. At termination, blood for HbA1c analyses were collected and M. gastrocnemius and M. soleus were weighed.
Statistical significance was evaluated using One-way analysis of variance with Dunnett's multiple comparison test. P < 0.05 was considered statistically significant.

[3] = Chemical stability of purified peptides (RP-UHPLC main peak purity loss); type: physicochemical
Outline: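 Purity loss is the drop in RP-UHPLC main-peak area fraction (215 nm detection, C8 column at 50 °C) from time zero to day 14 and/or day 28 at 40 °C. Samples held roughly 1.0 mg/ml peptide in 50 mM phosphate, pH 7.5, with other pH targets also tested.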

PK in mice = type: in vivo; design: T½ / MRT: unit: h; conditions: for MRT / T½ / clearance / half-life / Cmax / Tmax: Mouse; for bioavailability / clearance / half-life / Cmax / Tmax: male, in vivo; for bioavailability: NMRI, mouse; for clearance / half-life / Cmax / Tmax: NMRI/RjHan; for half-life: read-out: T½ (converted)
Description: Lean male NMRI/RjHan mice were obtained from JanVier (JanVier Labs, France) at 6 weeks of age. The animals were single housed under a 12/12 h dark-light cycle, light off at 3 PM. Room temperature was controlled to 22°C ± 1°C, with 60 % ± 20% humidity. Animals had ad libitum access to regular rodent chow (Altromin 1324, Brogaarden, Denmark) and tap water.
After 2 weeks of acclimatization, the animals were randomized into treatment groups (n=9 per group) based on body weight. Animals were dosed IV with one peptide and SC with another peptide (15 or 50 nmol/kg) Plasma samples were collected for PK analysis at times 0.17, 1, 3, 6, 24, 30, 48, 72 and 96 hours post dosing in a sparse sampling design with 3 mice per group per timepoint. Plasma samples were analyzed using LC-MSMS and PK parameters were estimated by Non-Compartmental Analysis (NCA).

## CCCC[C@H](NC(=O)[C@@H](NC(=O)[C@H](CCC(=O)O)NC(=O)[C@H](C)NC(=O)[C@H](CC(N)=O)NC(=O)C(C)(C)NC(=O)[C@H](CCCCNC(=O)COCCOCCNC(=O)COCCOCCNC(=O)CC[C@H](NC(=O)CC[C@H](NC(=O)CCCCCCCCCCCCCCCCCCC(=O)O)C(=O)O)C(=O)O)NC(=O)[C@H](C)NC(=O)[C@H](CCC(N)=O)NC(=O)[C@H](CCC(=O)O)NC(=O)[C@H](CCCNC(=N)N)NC(=O)[C@H](C)NC(=O)[C@H](C)NC(=O)[C@H](CCCNC(=N)N)NC(=O)[C@H](C)NC(=O)[C@H](CCCNC(=N)N)NC(=O)[C@H](C)NC(=O)[C@H](CCC(N)=O)NC(=O)[C@H](CO)NC(=O)[C@H](CC(C)C)NC(=O)[C@H](CC(C)C)NC(=O)[C@@H](NC(=O)[C@H](CCC(N)=O)NC(=O)[C@H](CC(C)C)NC(=O)[C@H](CC(C)C)NC(=O)CNC(=O)[C@@H](NC(=O)[C@@H]1CCCN1C(=O)[C@@H](NC(=O)[C@H](CC(=O)O)NC(=O)[C@H](CC(C)C)NC(=O)[C@H](CO)NC(=O)[C@H](CC(C)C)NC(=O)[C@@H](NC(=O)[C@@H]1CCCN1)C(C)C)C(C)C)[C@@H](C)CC)[C@@H](C)CC)[C@@H](C)CC)C(=O)N[C@@H](C)C(=O)N[C@@H](CCC(=O)O)C(=O)N[C@H](C(N)=O)C(C)C [SEQ ID NO: 238] (H-PVLSLDVPIGLLQILLSQARARAAREQAK([AEEA-AEEA-γGlu-γGlu-C20 diacid])[Aib]NAEI[Nle]AEV-NH2)
[1]; 200 µM compound dissolved in semaglutide drug product, pH 7.4, listed as None = drug product alone
  Amyloid fibril formation + semaglutide (Ozempic®), pH 7.4: No
[1]; 200 µM in 50 mM phosphate buffer, pH 7.0
  Amyloid fibril formation pH 7.0: No
[1]; 200 µM in 50 mM phosphate buffer, pH 7.5
  Amyloid fibril formation pH 7.5: No
[1]; 200 µM in 50 mM phosphate buffer, pH 8.0
  Amyloid fibril formation pH 8.0: No
[1]; pH 7.5
  Fibrillation (pH 7.5): No
[2]
  relative body weight: prolonged dose-dependent reduction
[2]; Table 17 study, 10 nmol/kg
  Blood HbA1c: 4.3 ± 0.04 %
  M. Gastrocnemius: 0.18 ± 0.001 g
  M. Soleus: 0.012 ± 0.0003 g
  Body weight at termination: 39.1 ± 0.7 g
  Fat mass change from baseline: -9.5 ± 0.6 g
  Lean mass change from baseline: -0.4 ± 0.2 g
  Relative body weight change at termination: 82.3 ± 1.2 %
[2]; Table 17 study, 30 nmol/kg
  Blood HbA1c: 4.4 ± 0.1 %
  M. Gastrocnemius: 0.18 ± 0.004 g
  M. Soleus: 0.011 ± 0.0007 g
  Body weight at termination: 37.4 ± 0.9 g
  Fat mass change from baseline: -10.7 ± 0.3 g
  Lean mass change from baseline: -0.7 ± 0.3 g
  Relative body weight change at termination: 77.9 ± 0.7 %
[3]; pH 7.0, 40°C, 14 days
  Purity loss (RP-UPLC analysis) T14-T0 (%): -1.0%
[3]; pH 7.0, 40°C, 28 days
  Purity loss (RP-UPLC analysis) T28-T0 (%): -1.2%
[3]; pH 7.5, 40°C, 14 days
  Purity loss (RP-UPLC analysis) T14-T0 (%): -3.1%
[3]; pH 7.5, 40°C, 28 days
  Purity loss (RP-UPLC analysis) T28-T0 (%): -4.8%
[3]; pH 7.5, 14 days, 40°C
  Chemical stability at pH 7.5 after 14 days at 40°C (% degradation): -1.6%
[3]; pH 7.5, 28 days, 40°C
  Chemical stability at pH 7.5 after 28 days at 40°C (% degradation): -4.6%
[3]; pH 8.0, 40°C, 14 days
  Purity loss (RP-UPLC analysis) T14-T0 (%): -5.1%
[3]; pH 8.0, 40°C, 28 days
  Purity loss (RP-UPLC analysis) T28-T0 (%): -9.8%
PK in mice
  MRT: 21.4
  T½: 19.6
PK in mice; sc
  bioavailability: 60%
PK in mice; iv, 15 nmol/kg i.v.
  clearance: 4.4 mL/h/kg
  half-life: 19.6 h
PK in mice; sc, 15 nmol/kg s.c.
  Cmax: 48 nM
  Tmax: 24 h
  half-life: 25.2 h

## CC[C@H](C)[C@H](N)C(=O)N[C@H](C(=O)N[C@@H](CC(C)C)C(=O)N[C@@H](CO)C(=O)N[C@@H](CC(C)C)C(=O)N[C@@H](CC(=O)O)C(=O)N[C@H](C(=O)N1CCC[C@H]1C(=O)N[C@H](C(=O)NCC(=O)N[C@@H](CC(C)C)C(=O)N[C@@H](CC(C)C)C(=O)N[C@@H](CCC(N)=O)C(=O)N[C@H](C(=O)N[C@@H](CC(C)C)C(=O)N[C@@H](CC(C)C)C(=O)N[C@@H](CCC(=O)O)C(=O)N[C@@H](CCC(N)=O)C(=O)N[C@@H](C)C(=O)N[C@@H](CCCNC(=N)N)C(=O)N[C@@H](C)C(=O)N[C@@H](CCCNC(=N)N)C(=O)N[C@@H](C)C(=O)N[C@@H](C)C(=O)N[C@@H](CCCNC(=N)N)C(=O)N[C@@H](CCC(=O)O)C(=O)N[C@@H](CCC(N)=O)C(=O)N[C@@H](C)C(=O)N[C@@H](CCCCNC(=O)COCCOCCNC(=O)COCCOCCNC(=O)CC[C@H](NC(=O)CC[C@H](NC(=O)CCCCCCCCCCCCCCCCCCC(=O)O)C(=O)O)C(=O)O)C(=O)N[C@H](C(=O)N[C@@H](CC(N)=O)C(=O)N[C@@H](C)C(=O)N[C@@H](CCC(=O)O)C(=O)N[C@H](C(=O)N[C@@H](CC(C)C)C(=O)N[C@@H](C)C(=O)N[C@@H](CCC(=O)O)C(=O)N[C@H](C(N)=O)C(C)C)[C@@H](C)CC)[C@@H](C)O)[C@@H](C)CC)[C@@H](C)CC)C(C)C)C(C)C [SEQ ID NO: 3] (H-IVLSLDVPIGLLQILLEQARARAAREQAK([AEEA-AEEA-γGlu-γGlu-C20 diacid])TNAEILAEV-NH2)
[1]; pH 7.5
  Fibrillation (pH 7.5): No
[1]; pH 7.5, ThT assay
  Fibrillation (pH 7.5): No
[2]
  relative body weight: prolonged dose-dependent reduction
[2]; Table 16 study, 10 nmol/kg
  Blood HbA1c: 4.3 ± 0.1%
  M. Gastrocnemius: 0.17 ± 0.005 g
  M. Soleus: 0.011 ± 0.0005 g
  BW at termination: 41.9 ± 1.5 g
  Fat mass change from baseline: -7.7 ± 0.7 g
  Lean mass change from baseline: 1.4 ± 0.3 g
  Relative body weight change at termination: 94.3 ± 1.6 %
[2]; Table 16 study, 30 nmol/kg
  Blood HbA1c: 4.1 ± 0.1 %
  M. Gastrocnemius: 0.17 ± 0.003 g
  M. Soleus: 0.012 ± 0.0005 g
  BW at termination: 38.2 ± 1.0 g
  Fat mass change from baseline: -10.2 ± 0.6 g
  Lean mass change from baseline: 0.4 ± 0.4 g
  Relative body weight change at termination: 89.0 ± 2.2 %
[2]; Table 16 study, 60 nmol/kg
  Blood HbA1c: 4.15 ± 0.1 %
  M. Gastrocnemius: 0.16 ± 0.004 g
  M. Soleus: 0.012 ± 0.0004 g
  BW at termination: 38.5 ± 0.6 g
  Fat mass change from baseline: -10.8 ± 0.6 g
  Lean mass change from baseline: 0.8 ± 0.3 g
  Relative body weight change at termination: 89.9 ± 1.9 %
[2]; Table 16 study, 100 nmol/kg
  Blood HbA1c: 4.1 ± 0.1 %
  M. Gastrocnemius: 0.17 ± 0.003 g
  M. Soleus: 0.011 ± 0.0006 g
  BW at termination: 37.3 ± 0.6 g
  Fat mass change from baseline: -11.2 ± 0.6 g
  Lean mass change from baseline: 0.8 ± 0.2 g
  Relative body weight change at termination: 87.7 ± 1.3 %
[2]; Table 17 study, 30 nmol/kg
  Blood HbA1c: 4.2 ± 0.1 %
  M. Gastrocnemius: 0.19 ± 0.003* * g
  M. Soleus: 0.013 ± 0.0006 g
  Body weight at termination: 39.3 ± 0.9 g
  Fat mass change from baseline: -9.5 ± 0.6 g
  Lean mass change from baseline: -0.2 ± 0.2 g
  Relative body weight change at termination: 82.4 ± 1.6 %
[3]; pH 7.5, 40°C, 14 days, first value of cell
  Chemical stability at pH 7.5 after 14 days at 40°C (% degradation): -6.1%
[3]; pH 7.5, 40°C, 28 days, second value of cell
  Chemical stability at pH 7.5 after 28 days at 40°C (% degradation): -15%
[3]; pH 7.5, 14 days, 40°C
  Chemical stability at pH 7.5 after 14 days at 40°C (% degradation): -6.1%
[3]; pH 7.5, 28 days, 40°C
  Chemical stability at pH 7.5 after 28 days at 40°C (% degradation): -15%
PK in mice
  MRT: 17.5
  T½: 13.5
PK in mice; sc
  bioavailability: 43.1%
PK in mice; iv, 50 nmol/kg i.v.
  clearance: < 10 mL/h/kg
  half-life: 13.5 h
PK in mice; sc, 50 nmol/kg s.c.
  Cmax: 141 nM
  Tmax: 24 h
  half-life: 11.4 h
